# Earlier results in patent publication US11559519B2, “Tizanidine therapy system” (MEDRx Co., Ltd., priority 2018, dated 2023).
# Details: multiple dose, placebo-controlled clinical studies
smiles,measurement,setting,value
Clc1ccc2nsnc2c1NC1=NCCN1 [tizanidine],sedation rated as severe,,10%
same,patients who reported sedation as an adverse event,patients receiving any dose,48%
